SMILES strings stand for the structures. Where only a bound is given, the exact number is not on record here.

The target of the assay is T1, ALK (baculovirus expressed human ALK kinase domain F1098-K1410) (Homo sapiens, UniProt Q9UM73).
T1 construct: baculovirus expressed human ALK kinase domain F1098-K1410; made in house
T1 sequence (Q9UM73 1098-1410): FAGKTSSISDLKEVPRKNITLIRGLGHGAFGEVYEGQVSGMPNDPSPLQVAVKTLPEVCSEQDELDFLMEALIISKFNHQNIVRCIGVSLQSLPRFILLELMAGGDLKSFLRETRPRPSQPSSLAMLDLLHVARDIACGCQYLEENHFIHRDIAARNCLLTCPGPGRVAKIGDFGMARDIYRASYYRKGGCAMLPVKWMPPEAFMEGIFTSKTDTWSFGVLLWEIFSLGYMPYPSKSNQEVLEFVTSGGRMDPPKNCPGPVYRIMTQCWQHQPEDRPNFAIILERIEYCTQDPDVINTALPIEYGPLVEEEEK
Put plainly: Luciferase-Coupled Chemiluminescent Kinase assay (LCCA), ALK biochemical activity. To be noted: inhibition of ALK; mean values; 1 μM ATP, 4 μM poly-AEKY, 12 nM ALK, 2 hours ambient temperature. Summed up: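 Luciferase-coupled readout of ATP remaining after reaction of 12 nM ALK kinase domain with 1 μM ATP and 4 μM poly-AEKY, Tris-HCl pH 7.5 buffer with MgCl2 and MnCl2. Incubated 2 h at ambient temperature; inhibition derived from ATP consumption across serial compound dilutions.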
The IC50 is the midpoint of a concentration-inhibition curve. Take `COc1cc2c(-c3ccc(O)c(Cl)c3)nc3[nH]nc(C)c3c2cc1OCC(C)C` [Example 134, 2-chloro-4-{1-methyl-7-(methyloxy)-8-[(2-methylpropyl)oxy]-3H-pyrazolo[3,4-c]isoquinolin-5-yl}phenol]: the IC50 lay in the range of 100 to 999 nM.

For `COCCOc1cc2c(cc1OC)c(-c1cc(Br)c(O)cc1F)nc1[nH]nc(C)c12` [Example 135, 2-bromo-5-fluoro-4-(1-methyl-7-(methyloxy)-8-{[2-(methyloxy)ethyl]oxy}-3H-pyrazolo[3,4-c]isoquinolin-5-yl)phenol], the IC50 is at most 99 nM.

`COc1cc2c(-c3ccc(O)c(Cl)c3)nc3[nH]ncc3c2cc1OC` [Example 136, 4-[7,8-bis(methyloxy)-3H-pyrazolo[3,4-c]isoquinolin-5-yl]-2-chlorophenol] showed an IC50 of 100 to 999 nM.

In turn, `COc1cc2c(-c3ccc(O)c(Cl)c3)nc3[nH]nc(C(F)(F)F)c3c2cc1OC` [Example 137, 4-[7,8-bis(methyloxy)-1-(trifluoromethyl)-3H-pyrazolo[3,4-c]isoquinolin-5-yl]-2-chlorophenol] returned an IC50 of 100 to 999 nM.

In turn, `COCc1n[nH]c2nc(-c3ccc(O)c(Cl)c3)c3cc(OC)c(OC)cc3c12` [Example 138, 4-{7,8-bis(methyloxy)-1-[(methyloxy)methyl]-3H-pyrazolo[3,4-c]isoquinolin-5-yl}-2-chlorophenol] had an IC50 of 100 to 999 nM.

Regarding `Cc1n[nH]c2nc(-c3ccc(O)c(Cl)c3)c3cc4c(cc3c12)OCO4` [Example 139, 2-chloro-4-(1-methyl-3H-[1,3]dioxolo[4,5-g]pyrazolo[3,4-c]isoquinolin-5-yl)phenol], the IC50 was at most 99 nM.

Turning to `Cc1n[nH]c2nc(-c3ccc(O)c(Cl)c3)c3cc4c(cc3c12)OCCO4` [Example 140, 2-chloro-4-(1-methyl-8,9-dihydro-3H-[1,4]dioxino[2,3-g]pyrazolo[3,4-c]isoquinolin-5-yl)phenol], the half-inhibitory concentration (IC50) is at most 99 nM.

In turn, `Cc1n[nH]c2nc(-c3ccc(O)c(Cl)c3)c3cc4c(cc3c12)OCCCO4` [Example 141, 2-chloro-4-(1-methyl-9,10-dihydro-3H,8H-[1,4]dioxepino[2,3-g]pyrazolo[3,4-c]isoquinolin-5-yl)phenol] yielded a half-inhibitory concentration (IC50) of at most 99 nM.

As to `COc1cc2c(cc1OC(F)F)c(-c1ccc(O)c(Cl)c1)nc1[nH]nc(C)c12` [Example 142, 2-chloro-4-[7-[(difluoromethyl)oxy]-1-methyl-8-(methyloxy)-3H-pyrazolo[3,4-c]isoquinolin-5-yl]phenol], the IC50 was at most 99 nM.

With `COCCOc1cc(F)c2c(-c3cc(Cl)c(O)cc3F)nc3[nH]nc(C)c3c2c1OC` [Example 143, 2-chloro-5-fluoro-4-(6-fluoro-1-methyl-9-(methyloxy)-8-{[2-(methyloxy)ethyl]oxy}-3H-pyrazolo[3,4-c]isoquinolin-5-yl)phenol], the 50% inhibitory concentration (IC50) was at most 99 nM.

Consider `COCCOc1cc(F)c2c(-c3cc(Cl)c(O)cc3F)nc3[nH]nc(C)c3c2c1F` [Example 144, 2-chloro-4-(6,9-difluoro-1-methyl-8-{[2-(methyloxy)ethyl]oxy}-3H-pyrazolo[3,4-c]isoquinolin-5-yl)-5-fluorophenol], for which the IC50 is at most 99 nM.

`Cc1n[nH]c2nc(-c3ccc(O)c(Cl)c3)c3ccc4c(c3c12)OCCO4` [Example 145, 2-chloro-4-(11-methyl-2,3-dihydro-9H-[1,4]dioxino[2,3-f]pyrazolo[3,4-c]isoquinolin-7-yl)phenol] showed a half-inhibitory concentration (IC50) of at most 99 nM.

On to `Cc1n[nH]c2nc(-c3cc(Cl)c(O)cc3F)c3ccc4c(c3c12)OCCO4` [Example 146, 2-chloro-5-fluoro-4-(11-methyl-2,3-dihydro-9H-[1,4]dioxino[2,3-f]pyrazolo[3,4-c]isoquinolin-7-yl)phenol], for which the concentration for half-maximal inhibition (IC50) is at most 99 nM.

`COc1cc2c(c(-c3ccc(O)c(Cl)c3)nc3[nH]nc(C)c32)c(OC)c1OC` [Example 147, 2-chloro-4-[1-methyl-6,7,8-tris(methyloxy)-3H-pyrazolo[3,4-c]isoquinolin-5-yl]phenol]: the IC50 was at most 99 nM.

In turn, `COCCOc1cc(F)c2c(-c3cc(Br)c(O)cc3F)nc3[nH]nc(C)c3c2c1F` [Example 148, 2-bromo-4-(6,9-difluoro-1-methyl-8-{[2-(methyloxy)ethyl]oxy}-3H-pyrazolo[3,4-c]isoquinolin-5-yl)-5-fluorophenol] yielded an IC50 of at most 99 nM.

As for `Cc1n[nH]c2nc(-c3cccc(Cl)c3)c3ccc4c(c3c12)OCCO4` [Example 149, 7-(3-chlorophenyl)-11-methyl-2,3-dihydro-9H-[1,4]dioxino[2,3-f]pyrazolo[3,4-c]isoquinoline], the 50% inhibitory concentration (IC50) was above 2000 nM.

`Cc1n[nH]c2nc(-c3cc(Cl)c(O)cc3F)c3c(F)c4c(cc3c12)OCCO4` [Example 150, 2-chloro-5-fluoro-4-(6-fluoro-1-methyl-8,9-dihydro-3H-[1,4]dioxino[2,3-g]pyrazolo[3,4-c]isoquinolin-5-yl)phenol] had an IC50 of at most 99 nM.

As for `COc1cc2c(-c3ccc(O)c(Cl)c3)nc3[nH]nc(C)c3c2cc1OCC1CCCO1` (stereo not shown) [Example 151, 2-chloro-4-{1-methyl-7-(methyloxy)-8-[(tetrahydrofuran-2-ylmethyl)oxy]-3H-pyrazolo[3,4-c]isoquinolin-5-yl}phenol], the IC50 is at most 99 nM.

`COc1cc2c(-c3ccc(O)c(Cl)c3)nc3[nH]nc(C)c3c2cc1OCC1CCCCO1` (stereo not shown) [Example 152, 2-chloro-4-{1-methyl-7-(methyloxy)-8-[(tetrahydro-2H-pyran-2-ylmethyl)oxy]-3H-pyrazolo[3,4-c]isoquinolin-5-yl}phenol] yielded an IC50 of at most 99 nM.

Regarding `COc1cc2c(-c3ccc(O)c(Cl)c3)nc3[nH]nc(C)c3c2cc1OCC(F)(F)F` [Example 153, 2-chloro-4-{1-methyl-7-(methyloxy)-8-[(2,2,2-trifluoroethyl)oxy]-3H-pyrazolo[3,4-c]isoquinolin-5-yl}phenol], the IC50 was 100 to 999 nM.

With `COc1c(OC)c(F)c2c(c(-c3cc(Cl)c(O)cc3F)nc3[nH]nc(C)c32)c1OC` [Example 154, 2-chloro-5-fluoro-4-[9-fluoro-1-methyl-6,7,8-tris(methyloxy)-3H-pyrazolo[3,4-c]isoquinolin-5-yl]phenol], the 50% inhibitory concentration (IC50) was at most 99 nM.

`Cc1n[nH]c2nc(-c3ccc(O)c(Cl)c3)c3c(F)cc(O)c(F)c3c12` [Example 155, 5-(3-chloro-4-hydroxyphenyl)-6,9-difluoro-1-methyl-3H-pyrazolo[3,4-c]isoquinolin-8-ol] displayed an IC50 of at most 99 nM.

On to `COCCOc1cc(F)c2c(-c3ccccc3F)nc3[nH]nc(C)c3c2c1F` [Example 156, 6,9-difluoro-5-(2-fluorophenyl)-1-methyl-8-{[2-(methyloxy)ethyl]oxy}-3H-pyrazolo[3,4-c]isoquinoline], for which the IC50 was above 2000 nM.

As to `Cc1n[nH]c2nc(-c3ccc(O)c(Cl)c3)c3c(F)cc(OC(F)F)c(F)c3c12` [Example 157, 2-chloro-4-{8-[(difluoromethyl)oxy]-6,9-difluoro-1-methyl-3H-pyrazolo[3,4-c]isoquinolin-5-yl}phenol], the IC50 is at most 99 nM.

The compound `Cc1n[nH]c2nc(-c3cc(Cl)c(O)cc3F)c3c(F)c4c(c(F)c3c12)OCCO4` [Example 158, 2-chloro-4-(6,11-difluoro-1-methyl-8,9-dihydro-3H-[1,4]dioxino[2,3-g]pyrazolo[3,4-c]isoquinolin-5-yl)-5-fluorophenol] returned an IC50 of at most 99 nM.

The compound `Cc1n[nH]c2cc(-c3ccc(O)cc3)c3ccccc3c12` [Example 159, 4-(1-methyl-3H-benzo[e]indazol-5-yl)phenol] came in with a 50% inhibitory concentration (IC50) of 100 to 999 nM.

In turn, `Cc1n[nH]c2nc(-c3ccccc3F)c3c(F)cc4c(c3c12)OCCO4` [Example 160, 6-fluoro-7-(2-fluorophenyl)-11-methyl-2,3-dihydro-9H-[1,4]dioxino[2,3-f]pyrazolo[3,4-c]isoquinoline] showed a half-maximal inhibitory concentration (IC50) of 100 to 999 nM.

For `COc1cc2c(-c3ccc(O)c(Cl)c3)nc3[nH]nc(C)c3c2cc1OCC1CCOCC1` [Example 161, 2-chloro-4-{1-methyl-7-(methyloxy)-8-[(tetrahydro-2H-pyran-4-ylmethyl)oxy]-3H-pyrazolo[3,4-c]isoquinolin-5-yl}phenol], the IC50 was at most 99 nM.

Compound `CCOCCOc1cc2c(cc1OC)c(-c1ccc(O)c(Cl)c1)nc1[nH]nc(C)c12` [Example 162, 2-chloro-4-[8-{[2-(ethyloxy)ethyl]oxy}-1-methyl-7-(methyloxy)-3H-pyrazolo[3,4-c]isoquinolin-5-yl]phenol] registered a half-maximal inhibitory concentration (IC50) of at most 99 nM.

For `Cc1n[nH]c2nc(-c3ccc(O)cc3F)c3c(F)cc4c(c3c12)OCCO4` [Example 164, 3-fluoro-4-(6-fluoro-11-methyl-2,3-dihydro-9H-[1,4]dioxino[2,3-f]pyrazolo[3,4-c]isoquinolin-7-yl)phenol], the half-inhibitory concentration (IC50) is at most 99 nM.

In the case of `Cc1n[nH]c2nc(-c3cc(Cl)c(O)cc3F)c3c(F)cc4c(c3c12)OCCO4` [Example 165, 2-chloro-5-fluoro-4-(6-fluoro-11-methyl-2,3-dihydro-9H-[1,4]dioxino[2,3-f]pyrazolo[3,4-c]isoquinolin-7-yl)phenol], the half-inhibitory concentration (IC50) is at most 99 nM.

The compound `COc1cc2c(-c3ccc(O)c(Cl)c3)nc3[nH]nc(C)c3c2cc1OC1CCCC1` [Example 166, 2-chloro-4-[8-(cyclopentyloxy)-1-methyl-7-(methyloxy)-3H-pyrazolo[3,4-c]isoquinolin-5-yl]phenol] registered an IC50 of at most 99 nM.

`COCCOc1cc2c(cc1C(C)C)c(-c1ccc(O)c(Cl)c1)nc1[nH]nc(C)c12` [Example 167, 2-chloro-4-(1-methyl-7-(1-methylethyl)-8-{[2-(methyloxy)ethyl]oxy}-3H-pyrazolo[3,4-c]isoquinolin-5-yl)phenol] gave a concentration for half-maximal inhibition (IC50) of at most 99 nM.

`CCc1c(OC)ccc2c(-c3ccc(O)c(Cl)c3)nc3[nH]nc(C)c3c12` [Example 168, 2-chloro-4-[9-ethyl-1-methyl-8-(methyloxy)-3H-pyrazolo[3,4-c]isoquinolin-5-yl]phenol] showed an IC50 of at most 99 nM.

Values taken from patent US7872014B2, “Anaplastic lymphoma kinase modulators and methods of use” (Exelixis, Inc., priority 2003, dated 2011).
